Measured values reported in ChEMBL document CHEMBL6074661, “Structural Modification and Pharmacological Evaluation of (Thiadiazol-2-yl)pyrazines as Novel Piezo1 Agonists for the Intervention of Disuse Osteoporosis” (J Med Chem, 2024).
In brackets after ≈: the same amount, converted by molar mass. Activity calls are given as the source filed them. No cut-off for these calls is given here.

What was measured:
[1] = target: Piezo-type mechanosensitive ion channel component 1 (Mus musculus) (UniProt E2JF22); assay: Agonist activity at Piezo1 in mouse C3H 10T1/2 cells assessed as influx of calcium ions by measuring change in ratio of calcium fluorescence at 20 uM incubated for 2 hrs by Cal-bryte 520 AM dye based analysis relative to control; type: cell-based
[2] = target: T1, Piezo-type mechanosensitive ion channel component 1 (Mus musculus, UniProt E2JF22); assay: Agonist activity at mouse Piezo1 transfected in HEK293T cells expressing PZ1 mutant by fluorescence based assay; type: cell-based
Target sequence in this assay (E2JF22 whole entry, looked up): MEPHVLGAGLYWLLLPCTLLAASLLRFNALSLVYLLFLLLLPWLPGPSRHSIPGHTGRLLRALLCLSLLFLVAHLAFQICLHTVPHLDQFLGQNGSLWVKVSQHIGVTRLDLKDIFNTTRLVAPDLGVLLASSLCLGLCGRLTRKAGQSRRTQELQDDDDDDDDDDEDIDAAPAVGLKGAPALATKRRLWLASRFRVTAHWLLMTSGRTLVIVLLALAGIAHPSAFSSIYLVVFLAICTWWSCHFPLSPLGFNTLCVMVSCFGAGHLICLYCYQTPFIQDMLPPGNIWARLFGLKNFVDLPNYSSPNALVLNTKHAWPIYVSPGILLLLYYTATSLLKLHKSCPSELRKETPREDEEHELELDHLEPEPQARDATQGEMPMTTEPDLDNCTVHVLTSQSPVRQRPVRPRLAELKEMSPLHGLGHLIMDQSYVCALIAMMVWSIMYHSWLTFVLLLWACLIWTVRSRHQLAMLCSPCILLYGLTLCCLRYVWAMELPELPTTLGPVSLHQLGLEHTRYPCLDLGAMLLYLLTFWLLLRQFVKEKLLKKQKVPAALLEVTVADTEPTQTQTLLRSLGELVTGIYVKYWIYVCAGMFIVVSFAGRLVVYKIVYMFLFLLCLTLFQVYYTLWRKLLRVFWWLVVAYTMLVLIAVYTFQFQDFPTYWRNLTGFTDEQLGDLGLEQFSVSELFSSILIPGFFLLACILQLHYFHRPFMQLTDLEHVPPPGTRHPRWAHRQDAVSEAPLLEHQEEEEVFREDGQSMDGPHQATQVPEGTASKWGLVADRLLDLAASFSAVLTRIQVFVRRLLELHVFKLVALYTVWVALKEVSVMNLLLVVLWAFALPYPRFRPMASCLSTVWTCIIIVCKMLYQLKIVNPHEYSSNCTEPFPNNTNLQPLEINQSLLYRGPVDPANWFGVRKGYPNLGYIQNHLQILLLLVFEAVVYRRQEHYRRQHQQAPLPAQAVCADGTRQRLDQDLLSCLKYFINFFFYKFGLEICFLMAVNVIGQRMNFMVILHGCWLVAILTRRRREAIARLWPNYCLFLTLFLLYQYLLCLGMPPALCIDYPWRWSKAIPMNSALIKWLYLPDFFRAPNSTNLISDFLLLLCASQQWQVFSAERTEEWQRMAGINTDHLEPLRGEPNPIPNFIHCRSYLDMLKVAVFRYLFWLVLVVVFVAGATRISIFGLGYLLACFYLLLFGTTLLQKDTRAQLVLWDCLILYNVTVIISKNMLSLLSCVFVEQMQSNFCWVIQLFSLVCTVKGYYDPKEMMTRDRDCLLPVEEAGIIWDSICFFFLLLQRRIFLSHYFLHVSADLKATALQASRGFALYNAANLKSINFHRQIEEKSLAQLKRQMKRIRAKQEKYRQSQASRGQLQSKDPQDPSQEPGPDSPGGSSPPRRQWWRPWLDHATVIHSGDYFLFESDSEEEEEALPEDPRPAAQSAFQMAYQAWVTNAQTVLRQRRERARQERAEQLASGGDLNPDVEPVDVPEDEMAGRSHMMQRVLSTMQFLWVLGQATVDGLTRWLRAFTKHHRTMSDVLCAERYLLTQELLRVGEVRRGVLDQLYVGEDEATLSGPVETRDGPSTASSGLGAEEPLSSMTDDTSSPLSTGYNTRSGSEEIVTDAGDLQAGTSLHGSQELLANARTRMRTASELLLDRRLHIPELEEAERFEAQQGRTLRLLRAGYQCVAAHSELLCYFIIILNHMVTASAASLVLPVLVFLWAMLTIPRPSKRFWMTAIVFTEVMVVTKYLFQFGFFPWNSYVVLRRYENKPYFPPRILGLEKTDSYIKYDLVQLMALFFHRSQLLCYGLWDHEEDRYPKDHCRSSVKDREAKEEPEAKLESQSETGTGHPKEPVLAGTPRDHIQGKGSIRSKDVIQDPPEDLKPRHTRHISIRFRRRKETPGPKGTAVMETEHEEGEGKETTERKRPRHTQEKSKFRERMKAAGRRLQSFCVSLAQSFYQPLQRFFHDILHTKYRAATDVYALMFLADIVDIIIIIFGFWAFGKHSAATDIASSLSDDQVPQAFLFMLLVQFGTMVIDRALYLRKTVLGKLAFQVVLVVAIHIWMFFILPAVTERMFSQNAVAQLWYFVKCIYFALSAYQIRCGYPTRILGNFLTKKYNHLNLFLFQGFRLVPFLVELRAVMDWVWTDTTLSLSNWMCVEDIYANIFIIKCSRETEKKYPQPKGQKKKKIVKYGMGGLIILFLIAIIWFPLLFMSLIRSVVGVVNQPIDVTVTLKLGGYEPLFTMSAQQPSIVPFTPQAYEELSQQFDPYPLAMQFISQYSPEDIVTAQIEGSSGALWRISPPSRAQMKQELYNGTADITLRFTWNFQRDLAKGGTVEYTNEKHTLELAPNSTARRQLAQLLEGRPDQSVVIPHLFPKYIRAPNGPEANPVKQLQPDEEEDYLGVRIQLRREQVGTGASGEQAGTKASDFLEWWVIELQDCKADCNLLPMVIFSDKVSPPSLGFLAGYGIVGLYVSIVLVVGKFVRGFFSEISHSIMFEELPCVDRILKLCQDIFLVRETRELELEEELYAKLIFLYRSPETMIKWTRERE

[3] = target: T2, Piezo-type mechanosensitive ion channel component 1 (Homo sapiens, UniProt Q92508); assay: Potency index, ratio of Yoda1 EC50 to test compound EC50 for agonist activity at Piezo1 (unknown origin); details: filed as agonist
[4] = Metabolic stability in human liver microsomes assessed as half life at 10 uM measured for 60 mins by LC-MS/MS analysis; type: ADME, Microsome
[5] = target: T1, Piezo-type mechanosensitive ion channel component 1; assay: Agonist activity at Piezo1 in mouse C3H 10T1/2 cells assessed as influx of calcium ions incubated for 2 hrs by Cal-bryte 520 AM dye based analysis; type: cell-based
Target sequence in this assay (E2JF22 whole entry): as the sequence (E2JF22 whole entry, looked up) above

[6] = Metabolic stability in mouse liver microsomes assessed as half life at 10 uM measured for 60 mins by LC-MS/MS analysis; type: ADME, Microsome
[7] = Aqueous solubility of compound at pH 7.4 incubated for 10 mins by HPLC analysis; type: physicochemical; details: aqueous medium
[8] = Apparent permeability in MDCK cells; type: ADME, cell-based, Canis lupus familiaris; details: dog
[9] = Toxicity in hind-limb unloading Sprague-Dawley rat model assessed as change in kidney function at 5 uM/kg, ip administered on day 1, 4, 7, 10, 13 and measured on day 14; type: organism-based; details: in vivo, 336 h, time 14 day
[10] = Metabolic stability in dog liver microsomes assessed as intrinsic clearance at 10 uM measured for 60 mins by LC-MS/MS analysis; type: ADME, Canis lupus familiaris, Microsome; details: read-out: CLH
[11] = Metabolic stability in human liver microsomes assessed as intrinsic clearance at 10 uM measured for 60 mins by LC-MS/MS analysis; type: ADME, Microsome; details: read-out: CLH
[12] = Metabolic stability in mouse liver microsomes assessed as intrinsic clearance at 10 uM measured for 60 mins by LC-MS/MS analysis; type: ADME, Microsome; details: read-out: CLH
[13] = Toxicity in hind-limb unloading Sprague-Dawley rat model assessed as change in liver function at 5 uM/kg, ip administered on day 1, 4, 7, 10, 13 and measured on day 14; type: organism-based; details: in vivo, 336 h, time 14 day
[14] = Metabolic stability in dog liver microsomes assessed as half life at 10 uM measured for 60 mins by LC-MS/MS analysis; type: ADME, Canis lupus familiaris, Microsome
[15] = target: T2, Piezo-type mechanosensitive ion channel component 1; assay: Agonist activity at human Piezo1 transfected in HEK293T cells by FLIPR assay; type: cell-based
[16] = target: Piezo-type mechanosensitive ion channel component 1 (Mus musculus) (UniProt E2JF22); assay: Potency index, ratio of Yoda1 EC50 to test compound […] for agonist activity at Piezo1 in mouse C3H 10T1/2 cells assessed as influx of calcium ions incubated for 2 hrs by Cal-bryte 520 AM dye based analysis; type: cell-based; details: filed as agonist, tested as the 2H-labelled form
[17] = test system: Rattus norvegicus; assay: Induction of osteogenesis in hind-limb unloading Sprague-Dawley rat model assessed as increase in ALP fluorescent area at 5 uM/kg, ip administered on day 1, 4, 7, 10, 13 and measured on day 14 by immunofluorescence based analysis; type: functional, organism-based; details: time 14.0 day, tested as the 2H-labelled form
[18] = test system: BMSC; assay: Induction of osteogenesis in BMSC cells (unknown origin) assessed as increase in Runx2 mRNA level incubated for 3 days by RT-qPCR analysis; type: functional, cell-based; details: dose 3-5 µM, time 3.0 day, tested as the 2H-labelled form
[19] = target: Piezo-type mechanosensitive ion channel component 1 (Rattus norvegicus) (UniProt Q0KL00); assay: Agonist activity at Piezo1 in rat BMSC cells assessed as increase in p-Erk level at 5 uM incubated for 5 mins by Western blot analysis; type: cell-based; details: filed as activator, tested as the 2H-labelled form
[20] = test system: BMSC; assay: Induction of osteogenesis in BMSC cells (unknown origin) assessed as increase in Osx mRNA level at 5 uM incubated for 3 days by RT-qPCR analysis; type: functional, cell-based; details: time 3.0 day, tested as the 2H-labelled form
[21] = test system: Rattus norvegicus; assay: Inhibition of disuse osteoporosis in hind-limb unloading Sprague-Dawley rat model assessed as decrease in trabecular separation at 5 uM/kg, ip administered on day 1, 4, 7, 10, 13 and measured on day 14 by micro-CT analysis; type: functional, organism-based; details: time 14.0 day, tested as the 2H-labelled form
[22] = test system: Rattus norvegicus; assay: Inhibition of disuse osteoporosis in hind-limb unloading Sprague-Dawley rat model assessed as increase in bone volume fraction at 5 uM/kg, ip administered on day 1, 4, 7, 10, 13 and measured on day 14 by micro-CT analysis; type: functional, organism-based; details: time 14.0 day, tested as the 2H-labelled form
[23] = test system: Rattus norvegicus; assay: Inhibition of disuse osteoporosis in hind-limb unloading Sprague-Dawley rat model assessed as increase in trabecular number at 5 uM/kg, ip administered on day 1, 4, 7, 10, 13 and measured on day 14 by micro-CT analysis; type: functional, organism-based; details: time 14.0 day, tested as the 2H-labelled form

T2 sequence (Q92508 whole entry): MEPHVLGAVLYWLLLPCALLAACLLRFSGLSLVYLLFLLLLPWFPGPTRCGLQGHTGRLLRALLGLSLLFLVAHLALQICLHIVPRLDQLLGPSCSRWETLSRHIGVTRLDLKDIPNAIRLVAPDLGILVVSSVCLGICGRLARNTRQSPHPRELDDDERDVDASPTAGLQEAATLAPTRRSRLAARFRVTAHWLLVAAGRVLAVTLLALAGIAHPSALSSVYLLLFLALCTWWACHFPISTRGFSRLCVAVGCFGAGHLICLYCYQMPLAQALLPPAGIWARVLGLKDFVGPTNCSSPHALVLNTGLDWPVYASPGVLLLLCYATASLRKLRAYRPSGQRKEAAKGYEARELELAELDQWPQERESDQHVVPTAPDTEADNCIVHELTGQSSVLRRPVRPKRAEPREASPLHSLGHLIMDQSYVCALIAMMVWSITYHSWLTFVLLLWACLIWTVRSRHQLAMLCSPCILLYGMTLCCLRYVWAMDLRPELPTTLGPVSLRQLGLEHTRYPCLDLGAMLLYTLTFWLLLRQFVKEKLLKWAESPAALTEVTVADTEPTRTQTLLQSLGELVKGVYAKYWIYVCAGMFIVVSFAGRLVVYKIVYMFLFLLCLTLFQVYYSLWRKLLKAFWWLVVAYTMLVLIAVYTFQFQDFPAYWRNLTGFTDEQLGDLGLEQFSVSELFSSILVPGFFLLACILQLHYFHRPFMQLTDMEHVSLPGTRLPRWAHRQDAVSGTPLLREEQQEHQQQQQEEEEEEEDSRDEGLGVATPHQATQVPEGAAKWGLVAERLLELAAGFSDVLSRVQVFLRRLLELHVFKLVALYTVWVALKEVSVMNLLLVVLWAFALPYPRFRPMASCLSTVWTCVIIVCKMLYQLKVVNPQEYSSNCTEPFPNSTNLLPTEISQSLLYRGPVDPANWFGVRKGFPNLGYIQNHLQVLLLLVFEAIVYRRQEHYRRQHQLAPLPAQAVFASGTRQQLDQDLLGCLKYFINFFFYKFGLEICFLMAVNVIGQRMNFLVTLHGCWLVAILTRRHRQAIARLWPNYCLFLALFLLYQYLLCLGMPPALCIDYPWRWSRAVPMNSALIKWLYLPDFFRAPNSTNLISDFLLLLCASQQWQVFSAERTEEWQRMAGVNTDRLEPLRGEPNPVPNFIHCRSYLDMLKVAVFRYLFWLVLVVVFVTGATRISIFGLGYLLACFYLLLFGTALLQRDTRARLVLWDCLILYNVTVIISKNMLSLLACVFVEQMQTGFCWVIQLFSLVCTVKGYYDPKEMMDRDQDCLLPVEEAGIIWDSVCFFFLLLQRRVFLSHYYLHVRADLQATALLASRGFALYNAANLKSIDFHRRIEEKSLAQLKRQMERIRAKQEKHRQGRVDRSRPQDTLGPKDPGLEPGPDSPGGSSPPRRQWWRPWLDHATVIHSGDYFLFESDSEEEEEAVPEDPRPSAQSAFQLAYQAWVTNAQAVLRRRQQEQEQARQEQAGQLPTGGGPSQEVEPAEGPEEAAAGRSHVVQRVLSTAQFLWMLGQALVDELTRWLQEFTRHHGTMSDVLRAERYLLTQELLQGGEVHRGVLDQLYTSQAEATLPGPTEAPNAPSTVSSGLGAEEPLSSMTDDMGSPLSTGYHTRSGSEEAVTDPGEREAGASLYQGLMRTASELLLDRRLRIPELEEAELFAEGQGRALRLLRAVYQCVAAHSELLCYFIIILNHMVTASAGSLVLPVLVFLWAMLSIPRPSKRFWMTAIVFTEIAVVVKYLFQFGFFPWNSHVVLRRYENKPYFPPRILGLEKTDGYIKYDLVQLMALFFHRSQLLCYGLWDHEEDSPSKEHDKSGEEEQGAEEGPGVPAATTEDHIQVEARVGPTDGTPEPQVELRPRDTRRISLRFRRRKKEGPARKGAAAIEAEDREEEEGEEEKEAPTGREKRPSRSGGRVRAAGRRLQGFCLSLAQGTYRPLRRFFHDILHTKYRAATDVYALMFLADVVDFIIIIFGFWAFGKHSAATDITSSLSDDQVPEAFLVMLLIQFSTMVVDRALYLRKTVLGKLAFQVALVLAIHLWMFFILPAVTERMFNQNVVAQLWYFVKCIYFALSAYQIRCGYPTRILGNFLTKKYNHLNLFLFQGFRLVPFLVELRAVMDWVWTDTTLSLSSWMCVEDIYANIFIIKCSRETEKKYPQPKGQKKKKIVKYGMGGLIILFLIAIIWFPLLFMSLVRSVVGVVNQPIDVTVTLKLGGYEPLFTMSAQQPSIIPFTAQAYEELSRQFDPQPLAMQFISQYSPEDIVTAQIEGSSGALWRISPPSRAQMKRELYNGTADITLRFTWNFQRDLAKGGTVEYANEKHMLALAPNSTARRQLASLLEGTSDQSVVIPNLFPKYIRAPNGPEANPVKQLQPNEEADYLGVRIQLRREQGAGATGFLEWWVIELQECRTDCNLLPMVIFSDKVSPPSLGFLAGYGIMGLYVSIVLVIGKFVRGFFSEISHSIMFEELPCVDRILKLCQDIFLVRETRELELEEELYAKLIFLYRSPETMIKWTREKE
Piezo-type mechanosensitive ion channel component 1 (Mus musculus), sequence (E2JF22 whole entry): as the sequence (E2JF22 whole entry, looked up) above

Structure (SMILES)	Percent change in calcium fluorescence ratio relative to control [1] [%]	Percent change in calcium fluorescence ratio relative to control ([1]; filed as agonist) [%]	also measured
C[C@@H](O)CNc1cnc(-c2nnc(SCc3ccc4ncoc4c3)s2)cn1	–	50.4	–
CC(Sc1nnc(-c2cnc(NC[C@@H](C)O)cn2)s1)c1c(Cl)cccc1Cl (stereo partly drawn)	–	164	–
C[C@@H](O)CNc1cncc(-c2nnc(SCc3c(Cl)cccc3Cl)s2)n1	–	49.7	–
NC1=NC(=O)[C@H](CC(=O)Nc2ccc(SC(F)F)cc2)S1	–	–	EC50 [2]: 12.9 µM
O=C(O)c1ccc(-c2nnc(SCc3c(Cl)cccc3Cl)s2)cc1	–	–	Ratio EC50 [3]: 4
C[C@@H](O)CNc1cnc(-c2nnc(SCc3ccc4c(cnn4C)c3)s2)cn1	–	73.5	–
[2H]C([2H])(Sc1nnc(-c2cnc(NC[C@@H](C)O)cn2)s1)c1c(Cl)cccc1Cl	–	–	half-life at 10 µM [4]: 16.7 min; EC50 [5]: 44.2 µM; half-life at 10 µM [6]: 15.7 min; solubility at 10 min [7]: 57.9 µM (≈ 24.9 µg/mL); Papp [8]: 21 ×10⁻⁶ cm/s; Activity [9]: Non-toxic; microsomal CLint at 10 µM [10]: 54.4 µL/min/mg; microsomal CLint at 10 µM [11]: 83.2 µL/min/mg; microsomal CLint at 10 µM [12]: 88.4 µL/min/mg; Activity [13]: Non-toxic; half-life at 10 µM [14]: 25.5 min
O=C1CC2(CCN(c3cnc(-c4nnc(SCc5ccc6scnc6c5)s4)cn3)CC2)CN1	7.7	–	–
C[C@@H](O)CNc1cnc(-c2nnc(SCc3ccc4nnn(C)c4c3)s2)cn1	35.4	–	–
FC(F)(F)c1cccc(Cl)c1CSc1nnc(-c2cnccn2)o1	–	–	Ratio EC50 [3]: 1.25
C[C@@H](O)CNc1cnc(-c2nnc(SCc3ccc4scnc4c3)s2)cn1	15.4	–	–
CCC(Sc1nnc(-c2cnc(NC[C@@H](C)O)cn2)s1)c1c(Cl)cccc1Cl (stereo partly drawn)	–	91.3	–
O=C1CC2(CCN(c3cnc(-c4nnc(SCc5ccc6ncoc6c5)s4)cn3)CC2)CN1	31.2	–	–
C[C@@H](O)CNc1cnc(-c2nnc(SCc3c(Cl)ccc(F)c3Cl)s2)cn1	–	91.4	–
C[C@@H](O)CNc1cnc(-c2nnc(SCc3ccccc3Cl)s2)cn1	–	61.9	–
Cc1nnc(CNC(=O)Nc2ccc(C3CCCCC3)cc2)o1	–	–	EC50 [2]: > 150 µM
C[C@@H](O)CNc1cnc(-c2nnc(SC(c3c(Cl)cccc3Cl)C3CC3)s2)cn1 (stereo partly drawn)	–	64.6	–
C[C@@H](O)CNc1cnc(-c2nnc(SCc3c(F)cccc3F)s2)cn1	21	–	–
C[C@@H](O)CNc1ccc(-c2nnc(SCc3c(Cl)cccc3Cl)s2)nn1	–	71.3	–
C[C@@H](O)CNc1ncc(-c2nnc(SCc3c(Cl)cccc3Cl)s2)cn1	–	41.7	–
C[C@@H](O)CNc1cnc(-c2nnc(SCc3c(Cl)ccnc3Cl)s2)cn1	–	69.7	–
Cn1ncc2cc(CSc3nnc(-c4cnc(N5CCC6(CC5)CNC(=O)C6)cn4)s3)ccc21	–	71.6	–
Cn1nnc2ccc(CSc3nnc(-c4cnc(N5CCC6(CC5)CNC(=O)C6)cn4)s3)cc21	38.8	–	–

The next lines start with results.

Percent change in calcium fluorescence ratio relative to control [1] [%]	Percent change in calcium fluorescence ratio relative to control ([1]; filed as agonist) [%]	Structure (SMILES)	also measured
16.1	–	CC1(O)CN(c2cnc(-c3nnc(SCc4c(Cl)cccc4Cl)s3)cn2)C1	–
30.4	–	O[C@H]1CCN(c2cnc(-c3nnc(SCc4c(Cl)cccc4Cl)s3)cn2)C1	–
36	–	OC1CN(c2cnc(-c3nnc(SCc4c(Cl)cccc4Cl)s3)cn2)C1	–
–	77.3	O=C1CC2(CCN(c3cnc(-c4nnc(SCc5c(Cl)cccc5Cl)s4)cn3)CC2)CN1	–
11.6	–	OCC1CN(c2cnc(-c3nnc(SCc4c(Cl)cccc4Cl)s3)cn2)C1	–
30.7	–	Clc1cccc(Cl)c1CSc1nnc(-c2cnccn2)s1	half-life at 10 µM [4]: 5.55 min; EC50 [15]: 17.1 µM; EC50 [5]: 2.21 µM; half-life at 10 µM [6]: < 5 min; solubility at 10 min [7]: 3.9 µM (≈ 1.39 µg/mL); Papp [8]: 38 ×10⁻⁶ cm/s; microsomal CLint at 10 µM [10]: 1040 µL/min/mg; microsomal CLint at 10 µM [11]: 250 µL/min/mg; microsomal CLint at 10 µM [12]: > 277 µL/min/mg; half-life at 10 µM [14]: 1.33 min
–	74.5	O[C@@H]1CN(c2cnc(-c3nnc(SCc4c(Cl)cccc4Cl)s3)cn2)C[C@@H]1O	–
-8	–	FC1(F)CN(c2cnc(-c3nnc(SCc4c(Cl)cccc4Cl)s3)cn2)C1	–
2	–	OC1CCN(c2cnc(-c3nnc(SCc4c(Cl)cccc4Cl)s3)cn2)CC1	–
–	45.4	CC(C)(O)[C@H](F)CNc1cnc(-c2nnc(SCc3c(Cl)cccc3Cl)s2)cn1	–
–	76.6	C[C@H](O)CNc1cnc(-c2nnc(SCc3c(Cl)cccc3Cl)s2)cn1	–
8	–	Clc1cccc(Cl)c1CSc1nnc(-c2cnc(Br)cn2)s1	–
–	56.3	OCCOCCNc1cnc(-c2nnc(SCc3c(Cl)cccc3Cl)s2)cn1	–
0.1	–	Clc1cccc(Cl)c1CSc1nnc(-c2cnc(N3CC4(COC4)C3)cn2)s1	–
–	106	C[C@@H](O)CNc1cnc(-c2nnc(SCc3c(Cl)cccc3Cl)s2)cn1	Percent change in calcium fluorescence ratio relative to control ([1]; filed as agonist, tested as the 2H-labelled form): 170%; Ratio EC50 [16]: 20; Activity [17]: Active; Activty Reached Almost That Of The Weight-Bearing; Activity [18]: Dose-dependent-effect; Activity [19]: Active; The Result Indicates That Compound Emulates Mechanical Stimulation To Activate Piezo1; Activity [20]: Active; Activity [21]: Active; Activity [22]: Active; Activity [23]: Active
–	65.2	OCCCNc1cnc(-c2nnc(SCc3c(Cl)cccc3Cl)s2)cn1	–
